The values below come from PubChem BioAssay AID180 (DTP/NCI, 2004).

“And” between values parts separate entries of the source, which are not always exact repeats. Equal values may be shown once.

In this test the test system is BDF1 mice, Adenocarcinoma 755 s.c., tumor weight T/C. The test is described as follows: NCI In Vivo Anticancer Drug Screen. Data for tumor model Adenocarcinoma 755 (subcutaneous) in B6D2F1 (BDF1) mice. Particulars: endpoint: mean tumor weight, higher = larger tumour. The gist of the method: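 Transplantable tumor implanted; mice dosed with compound or vehicle; survival or tumor size recorded; ratio of treated to vehicle control reported.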

Where [1] appears, read: dose: 75.0 mg/kg/injection, schedule: Q01DX011 (ip), vehicle: methylcellulose (MC).
Setting [2] is: dose: 10.0 mg/kg/injection, schedule: Q01DX011 (ip), vehicle: carboxymethylcellulose (CMC).
Setting [3] is: dose: 20.0 mg/kg/injection, schedule: Q01DX011 (ip), vehicle: carboxymethylcellulose (CMC).
Where [4] appears, read: dose: 40.0 mg/kg/injection, schedule: Q01DX011 (ip), vehicle: carboxymethylcellulose (CMC).
Where [5] appears, read: dose: 80.0 mg/kg/injection, schedule: Q01DX011 (ip), vehicle: carboxymethylcellulose (CMC).
The mark [6] stands for this setting: dose: 25.0 mg/kg/injection, schedule: Q01DX011 (ip), vehicle: carboxymethylcellulose (CMC).

As for `CCN(CC)P(=O)(N1CC1)N1CC1`, the T/C – broadly, the ratio of treated to control – is 60 % of control (dose: 0.5 mg/kg/injection, schedule: Q01DX011 (ip), vehicle: saline); 68 % of control (dose: 1.0 mg/kg/injection, schedule: Q01DX011 (ip), vehicle: saline); 50 % of control (dose: 2.0 mg/kg/injection, schedule: Q01DX011 (ip), vehicle: other); 43 % of control and 47 % of control (dose: 2.0 mg/kg/injection, schedule: Q01DX011 (ip), vehicle: saline); 26 % of control (dose: 4.0 mg/kg/injection, schedule: Q01DX011 (ip), vehicle: other); 18 % of control and 39 % of control (dose: 4.0 mg/kg/injection, schedule: Q01DX011 (ip), vehicle: saline). Moreover, the T/C by setting is: (dose: 8.0 mg/kg/injection, schedule: Q01DX011 (ip), vehicle: other) 14 % of control; (dose: 8.0 mg/kg/injection, schedule: Q01DX011 (ip), vehicle: saline) 10 % of control.
On to `C[C@@H]1C[C@H]2[C@@H]3CCC4=CC(=O)C=C[C@]4(C)[C@@]3(F)[C@@H](O)C[C@]2(C)[C@@]1(O)C(=O)CO`, for which the T/C reads like this: (dose: 7.0 mg/kg/injection, schedule: Q01DX011 (sc), vehicle: steriod suspending solution) 19 % of control and 32 % of control and 39 % of control; (dose: 14.0 mg/kg/injection, schedule: Q01DX011 (sc), vehicle: steriod suspending solution) 1 % of control and 25 % of control; (dose: 21.0 mg/kg/injection, schedule: Q01DX011 (sc), vehicle: steriod suspending solution) 4 % of control; (dose: 28.0 mg/kg/injection, schedule: Q01DX011 (sc), vehicle: steriod suspending solution) 10 % of control.
Turning to `CCCCCCSc1ncnc2nc[nH]c12`, the T/C was 93 % of control (dose: 31.0 mg/kg/injection, schedule: Q01DX011 (ip), vehicle: other); 35 % of control (dose: 62.0 mg/kg/injection, schedule: Q01DX011 (ip), vehicle: other); 2 % of control (dose: 125.0 mg/kg/injection, schedule: Q01DX011 (ip), vehicle: other); 1 % of control (dose: 250.0 mg/kg/injection, schedule: Q01DX011 (ip), vehicle: other); 5 % of control (dose: 300.0 mg/kg/injection, schedule: Q01DX010 (ip), vehicle: other); 3 % of control (dose: 400.0 mg/kg/injection, schedule: Q01DX010 (ip), vehicle: other).
Consider `Nc1nc(SCc2ccc(Cl)cc2)c2ncn(C3OC(CO)C(O)C3O)c2n1` (configuration not stated), for which the T/C is 6 % of control (dose: 37.5 mg/kg/injection, schedule: Q01DX011 (ip), vehicle: methylcellulose (MC)) and 1 % of control under setting [1].
Regarding `Brc1ncnc2c1ncn2C1CCCS1` (configuration not stated), the T/C was 75 % of control (dose: 25.0 mg/kg/injection, schedule: Q01DX011 (ip), vehicle: methylcellulose (MC)); 66 % of control under setting [1]; 86 % of control (dose: 225.0 mg/kg/injection, schedule: Q01DX011 (ip), vehicle: methylcellulose (MC)).
In the case of `CCOC(=O)C(Cc1ccc(N(CCCl)CCCl)cc1)NC=O` (configuration not stated), the T/C is 75 % of control (dose: 5.0 mg/kg/injection, schedule: Q01DX011 (ip), vehicle: carboxymethylcellulose (CMC)); 43 % of control under setting [2]; 48 % of control under setting [3]; 3 % of control under setting [4]; 6 % of control under setting [5].
`Clc1cccc(CSc2ncnc3nc[nH]c23)c1`: the T/C was 56 % of control (dose: 3.9 mg/kg/injection, schedule: Q01DX011 (ip), vehicle: methylcellulose (MC)); 57 % of control (dose: 7.8 mg/kg/injection, schedule: Q01DX011 (ip), vehicle: methylcellulose (MC)); 20 % of control (dose: 15.6 mg/kg/injection, schedule: Q01DX011 (ip), vehicle: methylcellulose (MC)); 3 % of control and 7 % of control (dose: 31.25 mg/kg/injection, schedule: Q01DX011 (ip), vehicle: methylcellulose (MC)); 5 % of control (dose: 62.5 mg/kg/injection, schedule: Q01DX011 (ip), vehicle: methylcellulose (MC)).
Take `CC(=O)NCCSC(=O)C(=O)SCCNC(C)=O`: the T/C runs as follows: (dose: 25.0 mg/kg/injection, schedule: Q01DX011 (ip), vehicle: saline) 62 % of control; (dose: 50.0 mg/kg/injection, schedule: Q01DX011 (ip), vehicle: saline) 65 % of control; (dose: 200.0 mg/kg/injection, schedule: Q01DX011 (ip), vehicle: saline) 42 % of control and 63 % of control.
As to `Oc1ccc2ccccc2c1N=Nc1ccc(N=Nc2ccccc2)cc1`, the T/C under setting [6] is 121 % of control; the T/C (dose: 100.0 mg/kg/injection, schedule: Q01DX011 (ip), vehicle: carboxymethylcellulose (CMC)) was 116 % of control; the T/C (dose: 200.0 mg/kg/injection, schedule: Q01DX011 (ip), vehicle: carboxymethylcellulose (CMC)) was 108 % of control.
Regarding `NCC(N)=O`, the T/C by setting is: (dose: 100.0 mg/kg/injection, schedule: Q01DX011 (ip), vehicle: other) 86 % of control; (dose: 200.0 mg/kg/injection, schedule: Q01DX011 (ip), vehicle: other) 79 % of control; (dose: 400.0 mg/kg/injection, schedule: Q01DX011 (ip), vehicle: other) 56 % of control.
Regarding `Nc1nc(Cl)cc(Nc2ccc(CCO)cc2)n1`, the T/C is 101 % of control (dose: 15.0 mg/kg/injection, schedule: Q01DX011 (ip), vehicle: methylcellulose (MC)); 77 % of control (dose: 62.0 mg/kg/injection, schedule: Q01DX011 (ip), vehicle: methylcellulose (MC)); 102 % of control (dose: 125.0 mg/kg/injection, schedule: Q01DX011 (ip), vehicle: methylcellulose (MC)).
In the case of `CN(N=O)C(N)=O`, the T/C by setting is: (dose: 2.5 mg/kg/injection, schedule: Q01DX011 (ip), vehicle: methylcellulose (MC)) 109 % of control; (dose: 2.81 mg/kg/injection, schedule: Q01DX011 (ip), vehicle: carboxymethylcellulose (CMC)) 78 % of control; (dose: 3.16 mg/kg/injection, schedule: Q01DX011 (ip), vehicle: carboxymethylcellulose (CMC)) 78 % of control; (dose: 5.0 mg/kg/injection, schedule: Q01DX011 (ip), vehicle: methylcellulose (MC)) 97 % of control; (dose: 5.62 mg/kg/injection, schedule: Q01DX011 (ip), vehicle: carboxymethylcellulose (CMC)) 120 % of control; (dose: 6.32 mg/kg/injection, schedule: Q01DX011 (ip), vehicle: carboxymethylcellulose (CMC)) 76 % of control. Also, the T/C by setting is: (dose: 6.33 mg/kg/injection, schedule: Q01DX011 (ip), vehicle: carboxymethylcellulose (CMC)) 79 % of control; (dose: 7.2 mg/kg/injection, schedule: Q01DX011 (ip), vehicle: carboxymethylcellulose (CMC)) 108 % of control; (dose: 9.0 mg/kg/injection, schedule: Q01DX011 (ip), vehicle: carboxymethylcellulose (CMC)) 77 % of control; (dose: 10.0 mg/kg/injection, schedule: Q01DX011 (ip), vehicle: methylcellulose (MC)) 87 % of control; (dose: 10.12 mg/kg/injection, schedule: Q01DX011 (ip), vehicle: carboxymethylcellulose (CMC)) 109 % of control and 119 % of control; (dose: 12.0 mg/kg/injection, schedule: Q01DX011 (ip), vehicle: carboxymethylcellulose (CMC)) 79 % of control. The T/C reads like this: (dose: 13.0 mg/kg/injection, schedule: Q01DX011 (ip), vehicle: carboxymethylcellulose (CMC)) 93 % of control; (dose: 15.0 mg/kg/injection, schedule: Q01DX011 (ip), vehicle: carboxymethylcellulose (CMC)) 97 % of control and 85 % of control; (dose: 18.0 mg/kg/injection, schedule: Q01DX011 (ip), vehicle: carboxymethylcellulose (CMC)) 13 % of control; (dose: 20.0 mg/kg/injection, schedule: Q01DX011 (ip), vehicle: methylcellulose (MC)) 27 % of control; (dose: 22.5 mg/kg/injection, schedule: Q01DX011 (ip), vehicle: carboxymethylcellulose (CMC)) 21 % of control and 42 % of control; under setting [6], 24 % of control.
Regarding `O=C(O)C(O)C(O)C(O)C(O)CO.O=C(O)C(O)C(O)C(O)C(O)CO.O=C(O)C(O)C(O)C(O)C(O)CO.[Ga]` (configuration not stated), the T/C is 72 % of control under setting [2], 64 % of control under setting [3], 25 % of control under setting [4] and 10 % of control under setting [5].
